Data on five molecules can be found in patent publication US20230096103A1, “BERBERINE COMPOUNDS, BERBERINE COMPOSITIONS, AND METHODS FOR ADMINISTRATION THEREOF” (Dignity Health, priority 2020, published 2023).

Assay [1] deals with T1, human α4β2-nAChR (Homo sapiens, UniProt P17787+P43681).
T1 construct: expressed in transfected cells; host or cells: human SH-EP1 cell line
The assay can be described thus: Whole-cell patch-clamp of human α4β2-nAChR-mediated currents in transfected SH-EP1 cells. The class given is cell-based. The settings on record: for ACh-induced currents, peak current component / ACh-induced currents, steady-state component: 30 μM co-applied with 1 mM ACh; for 1 mM ACh-induced whole-cell currents: 1 min pretreatment. The method, then: The effects of THPBs on α4β2-nAChR function were evaluated in vitro. Specifically, whole-cell patch-clamp recording technique was employed in α4β2-nAChRs transfected with a human SH-EP1 cell-line. FIG. 1A provides graphs illustrating the effects of a 1 min pre-treatment of 30 μM /-THP, d/-THB or /-SPD on 1 mM ACh-induced current in SH-EP1 cell line.
Thus, when THPBs are co-applied with an agonist, it affects receptor function after agonist opens channels.
(§1) The effects of THB-induced inhibition on the α4β2-nAChR function were evaluating using human α4β2-nAChRs (transfected to SH-EP1 cells) and rat α4β2-nAChRs natively expressed in VTA DA neurons. The 30 μM THB (without pretreatment) inhibited both types (human and rat) of α4β2-nAChR function, and compared to peak current, the steady-state current portion was more sensitive to THB (FIGS. 3A-3C).
The effect of different concentrations of THB on 1 mM ACh-induced whole-cell currents were further examined in human α4β2-nAChRs in SH-EP1 cells. […] The steady-state current was more sensitive to THB than the peak current.
FIG. 9A provides a graph of traces of co-application of THB6 on ACh-induced current. FIG. 9B provides a graph of traces of the effect of 1 min pretreatment of THB6 on ACh-induced current. […] Each bar of the bar graph presented in FIG. 9C represents the mean from 4 cells and vertical bars indicate +Se. A ^“*” was given to indicate p<0.05, while a ^“***” was given to indicate p<0.001 in FIG. 9C. Data was analyzed with One-Way ANOVA.
A dosage containing 100 μM THB6 compound was evaluated on human and mouse α4β2-nAChR-mediated currents. FIG. 10A provides a graph of traces of ACh-induced whole-cell currents in human α4β2-nAChRs transfected in human SH-EP1 cells. FIG. 10B provides a graph of traces of ACh-induced whole-cell currents in mouse α4β2-nAChRs transfected in VTA dopamine neurons. […] Each bar in the bar graph of FIG. 10C represents the mean from 4 cells and vertical bars indicate +SE. A ^“*” was given to indicate p<0.05. A ^“***” was given to indicate p<0.001 in FIG. 9C. Data was analyzed with One-Way ANOVA.

For assay [2], the system named is VTA DA neurons. The assay can be described thus: Miniature EPSCs in VTA DA neuron, patch-clamp whole-cell recording in VTA slice. The class given is cell-based. The procedure:
Thus, the effect of /-THP on this nicotine-induced EPSC enhancement was studied. […] Co-application of 10 μM /-THP abolished nicotine-induced enhancement of mEPSCs (see, FIGS. 5A and 5C).

In assay [3] the test system is male C57BL/6 mice. The assay is described as follows: Nicotine-induced conditioned place preference (CPP). The class given is in vivo, mouse. The method, then:
A conventional biased CPP was performed on male C57BL/6 mice. Mice were put into two-compartment CPP apparatus (Med Associate Inc. VT) for accommodation once (20 min) a day for 3 days and for monitoring the preference to any specific side of compartment. Mice were divided into 3 groups (5 mice per group) and received 2 training sessions per day for 4 days.
When the mouse received a saline injection, it was placed into the opposite side for 20 min. […] Alternatively, the mice of the second group received saline injection and placed into the opposite side. The third group of mice (the I-THP only group) received /-THP i.p. injection (10 mg/Kg) and were placed into the least preferred side for 20 min. Alternatively, the mice received a saline injection and were placed into the opposite side.
On the 5th day, mice were tested for place preference by allowing free access to both conditioning compartments for 20 minutes. The foregoing 4-day training session was repeated on the 6th day. Mice of group 1 received their treatments without change. […] Alternatively, the mice of group 2 received a saline injection and then received a saline injection 5 min later. After the saline injection, the mice of group 2 were placed into the opposite chamber for 4 days. On the 10th day, the mice were tested for place preference for 20 min (See, FIG. 8).

Assay [4] deals with T2, mouse α4β2-nAChRs (Mus musculus, UniProt O70174+Q9ERK7).
T2 construct: expressed in transfected cells; host or cells: VTA dopamine neurons
The assay is described as follows: ACh-induced whole-cell currents of mouse α4β2-nAChRs in VTA dopamine neurons. Format: cell-based. The settings on record: 100 μM. The procedure: A dosage containing 100 μM THB6 compound was evaluated on human and mouse α4β2-nAChR-mediated currents. FIG. 10A provides a graph of traces of ACh-induced whole-cell currents in human α4β2-nAChRs transfected in human SH-EP1 cells. FIG. 10B provides a graph of traces of ACh-induced whole-cell currents in mouse α4β2-nAChRs transfected in VTA dopamine neurons. […] FIGS. 10C and 10D provide bar graphs showing the statistic result that THB6 inhibits both peak and steady-state compounds of ACh-induced currents. Each bar in the bar graph of FIG. 10C represents the mean from 4 cells and vertical bars indicate +SE. A ^“*” was given to indicate p<0.05. A ^“***” was given to indicate p<0.001 in FIG. 9C. Data was analyzed with One-Way ANOVA.

The test system of assay [5] is VTA DA neurons. The assay can be described thus: Action potential firing in mouse VTA slices, cell-attached patch recording. The class given is cell-based. The method, then: Based on the evaluation of a dosage containing THB6 compounds on VTA slices, it was determined that THB6 prevents nicotine-induced firing rate increase in VTA DA neurons. […] FIG. 11B is a bar graph showing the statistical result of the normalized firing rate of THB6 compounds.

Assay [6] concerns VTA DA neurons. The assay is described as follows: Extracellular single unit recording of VTA DA neuron firing in anesthetized mice. The class given is in vivo, mouse. The method, then: The effect of systemic injection of THB6 on mouse VTA DA neuron firing was evaluated by applying 10 mg/kg via an IV to anesthetized mice and extracellular single unit recordings were performed. FIG. 12A provides an image of the VTA slice, showing the recording electrode track and recording site after the experiment. The location of the recording electrode track is depicted in FIG. 12B.

Assay [7] deals with mice. The assay is described as follows: Mouse locomotor activity after systemic injection. Format: in vivo. The source says: Systemic injection of dosages containing THB6 to mice and the mice's locomotive activity was studied.
The target of assay [8] is T1, human α4β2-nAChR. The assay can be described thus: 3H-epibatidine (H-EBDN) binding and binding competition on heterologously expressed α4β2-nAChR. The settings on record: FIG. 2A.
Assay [9] concerns the target T1, human α4β2-nAChR. The assay can be described thus: 86Rb+ efflux assay, carbachol-induced response, heterologously expressed α4β2-nAChR. The class given is cell-based.
Assay [10] concerns the target T3, rat α4β2-nAChRs (Rattus norvegicus, UniProt P09483+P12390).
T3 construct: rat α4β2-nAChRs natively expressed in VTA DA neurons; endogenous in cells; host or cells: rat VTA dopamine neurons
The assay is described as follows: Whole-cell currents of rat α4β2-nAChRs natively expressed in VTA DA neurons. The settings on record: 30 μM, without pretreatment. Format: cell-based. The method, then: as §1

For assay [11], the system named is VTA DA neurons. The assay can be described thus: In vivo VTA DA neuronal firing in anesthetized rats. More on the design: species or system rat. The procedure: It was tested whether systemic injection of THB affected VTA DA neuron firing. As shown in FIGS. 6A-6C, injection of THB (1 mg/kg, i.v.) increased VTA DA neuron firing rate, bursting fraction (FIG. 6A), and slow oscillations (FIGS. 6B-6D). […] THB appears to eliminate nicotinic effect via its blockade of nAChRs. Therefore, the actions of THB are consistent with the double target hypothesis that THB blocks nAChRs (especially α4β2-nAChRs) and enhances DA release from VTA to DA neuronal targets.

Setting [12] is: 1 mg/kg, i.v., anesthetized rats.

For the molecule `COc1cc2c(cc1OC)[C@@H]1Cc3ccc(OC)c(OC)c3CN1CC2` [/-THP, /-tetrahydropalmatine], in [1] (SH-EP1 cells), the “ACh-induced currents, peak current component” value is given as “only mildly reduced” and the “ACh-induced currents, steady-state component” value is recorded as “suppressed”. Moreover, the “1 mM ACh-induced whole-cell currents” value in assay [1] (30 μM, SH-EP1 cells) was “dramatically eliminated”. Besides, in assay [1] (co-application with 1 mM ACh, SH-EP1 cells, n=8, read-out: IC50 value for current net charge), the 50% inhibitory concentration (IC50) stood at 5.2 µM. Moreover, the Hill coefficient in [1] (co-application with 1 mM ACh, current net charge) is reported as 0.4. Further, in assay [2] (10 μM co-applied with 1 μM nicotine), the “nicotine-induced enhancement of mEPSCs” value is listed as “abolished”. In addition, the “nicotine rewarding effects after CPP has been established” value in [3] (10 mg/Kg i.p. 5 min before nicotine 1.5 mg/Kg) was “counteracts”.
Consider `COc1ccc2c(c1OC)CN1CCc3cc4oc(=O)oc4cc3C1C2` (centres unmarked) [THB6], for which the “peak component of ACh-induced currents” value in [1] (30 μM, with and without 1 min pretreatment, FIG. 9C) was “inhibiting”. Moreover, in assay [1] (100 μM, SH-EP1 cells), the “peak and steady-state components of ACh-induced currents, human α4β2-nAChRs” value is given as “inhibits”. Moreover, in assay [4], the “peak and steady-state components of ACh-induced currents, mouse α4β2-nAChRs” value was “inhibits”. Also, in assay [5], the “DA neuronal firing, compound alone” value is on record as “did not affect” and the nicotine-induced firing increase result is reported as “prevented”. Besides, in assay [6] (10 mg/kg IV, anesthetized mice), the “neuronal firing rate, compound alone” value is given as “did not affect” and the “nicotine-induced increase of firing rate” value is reported as “prevented”. Besides, in [7] (pretreatment), the “nicotine-induced increase of locomotor activity” value is reported as “prevented”. In addition, in [7] (systemic injection), the “locomotor activity, compound alone” value is given as “did not alter”.
Consider `COc1ccc2c(c1OC)CN1CCc3cc4c(cc3C1C2)OCO4` (centres unmarked) [THB, tetrahydroberberine], for which, in [1] (SH-EP1 cells), the “ACh-induced currents, peak current component” value was “only mildly reduced” and the “ACh-induced currents, steady-state component” value was “suppressed”. For the same molecule, in assay [1] (30 μM, SH-EP1 cells), the “1 mM ACh-induced whole-cell currents” value was “dramatically eliminated”. Further, the “human α4β2-nAChR function (ACh-induced currents)” value in assay [1] (30 μM, without pretreatment) is “inhibited”. 2.2 µM corresponded to half-maximal inhibition in [1] (IC50 value of Ip (peak current), 1 mM ACh-induced whole-cell currents, SH-EP1 cells) (IC50). The molecule also yielded an IC50 in assay [1] (IC50 value of Is (steady-state current), 1 mM ACh-induced whole-cell currents, SH-EP1 cells) of 37 µM. Further, the “affinity in H-EBDN binding competition” value in assay [8] is reported as “high affinity”. This molecule also showed an IC50 in [9] of 7 µM. In addition, the “rat α4β2-nAChR function (ACh-induced currents)” value in assay [10] is reported as “inhibited”. Moreover, in [11] (setting [12]), the “VTA DA neuron bursting fraction” value is recorded as “increased”, the “VTA DA neuron firing rate” value is “increased” and the “VTA DA neuron slow oscillations” value is given as “increased”. Also, in assay [11] (nicotine 0.5 mg/kg i.v. 5 min after THB injection), the “effect of nicotine on VTA DA firing rate and bursting fraction after THB” value is “failed to increase”.
For `CN1CCCC1c1cccnc1` (centres unmarked) [nicotine], the mEPSC amplitude result in [2] (FIG. 5D) is listed as “did not affect”. Further, the mEPSC frequency entry in assay [2] (bath application of 1 μM) is reported as “significantly increased”. Also, the conditioned place preference entry in assay [3] (1.5 mg/Kg) was “induced significant CPP”. Further, the “neuronal firing rate at 2 minutes after injection” value in [6] (systemic injection, back to normal level after 8 minutes) is reported as “increases”.
Turning to /-stepholidine [/-SPD], in assay [1] (SH-EP1 cells), the “ACh-induced currents, peak current component” value is listed as “only mildly reduced” and the “ACh-induced currents, steady-state component” value was “suppressed”. Besides, in assay [1] (30 μM, SH-EP1 cells), the “1 mM ACh-induced whole-cell currents” value is given as “dramatically eliminated”. Further, the “affinity in H-EBDN binding competition” value in [8] is recorded as “lower affinity”. For the same molecule, the 50% inhibitory concentration (IC50) in assay [9] (FIG. 2B, read-out: IC50 value, carbachol-induced 86Rb+ efflux response) was 30 µM.
